Patent US11072619B2, “Pyrazole[1,5-a] pyrimidine derivatives as kinase JAK inhibitors” (CELON PHARMA S.A., priority 2017, dated 2021)

How the values were obtained:
Recombinant kinase JAK1 = Recombinant kinase JAK1 (Homo sapiens (Human), UniProt P23458); test: In vitro JAK kinase inhibition assay (ADP-Glo), JAK1; assay type: biochemical; settings: 30 μM ATP, peptide IRS-1, averaged
Protocol: (§1) In Vitro JAK Kinase Inhibition Assay
(§2) The effects of the compounds of the invention were analysed in vitro using kinase JAK inhibition assay described below.
(§3) Tested compounds were dissolved in 100% DMSO, and obtained stock solutions were serially diluted in the reaction buffer (50 mM Tris pH 7.5, 10 mM MgCl2, 0.25 mM EGTA, 0.1 mM Na3VO4, 0.01% Triton X-100, 2.5 mM DTT). Recombinant kinases JAK1 (ProQinase), JAK2, or JAK3 (Carna Biosciences) were diluted in the dilution buffer (50 mM Tris-HCl pH 7.5, 150 mM NaCl, 10% glycerol, 0.05% Triton X-100, 1 mM DTT) to the final concentration 3 ng/μL (JAK1), 0.1 ng/μL (JAK2), or 0.2 ng/μL (JAK3). 5 μL of obtained solution of the compounds and 5 μL of the solution of respective kinases were added to the well of a 96-well plate. To initiate interaction between tested compounds and an enzyme, the plate was incubated for 10 minutes at 25° C. in a Plate-Thermo-Shaker with orbital stirring at 400 rpm. Wells of a negative control contained all reagents as mentioned above with the exception of tested compounds and kinase, and wells of a positive controls contained all reagents as mentioned above with the exception of tested compounds. Enzymatic reaction was initiated by the addition of 15 μL of the following solution: 5× concentrated reaction buffer (50 mM Tris pH 7.5, 10 mM MgCl2, 0.25 mM EGTA, 0.1 mM Na3VO4, 0.01% Triton X-100, 2.5 mM DTT), water, 30 μM ATP and for particular kinases: JAK1—60 μM peptide IRS-1 (Enzo), JAK2 or JAK3—10 μM peptide IGF-1Rtide (Lipopharm). Then the plate was incubated for 1 hour at 25° C. in a Plate-Thermo-Shaker, with orbital stirring at 400 rpm. Detection of ADP formed in the enzymatic reaction was then performed using ADP-Glo Kinase Assay kit (Promega). For this purpose, to the well of the 96-well plate 25 μL of ADP-Glo Reagent were added, and the plate was incubated for 40 minutes at 25° C. in a Plate-Thermo-Shaker with orbital stirring at 400 rpm. Then to the well of the 96-well plate 50 μL of Kinase Detection Reagent were added and the plate was incubated for 30 minutes at 25° C. in a Plate-Thermo-Shaker with orbital stirring at 400 rpm. After incubation, luminescence intensity was measured using Victor×Light luminometer (Perkin Elmer, Inc.).
(§4) On the basis of luminescence measurement in wells containing tested compounds at various concentrations and in control wells, IC50 values were determined. These values were determined with Graph Pad software v. 5.03, by fitting points of the curve using non-linear regression method. Each compound was tested in at least 6 repetitions (6 wells) on two 96-well plates, using at least 3 wells of each control.
(§5) Averaged results of kinases JAK inhibition activity for selected compounds of the present invention are presented below in Table 1.

Recombinant kinase JAK3 = Recombinant kinase JAK3 (Homo sapiens (Human), UniProt P52333); test: In vitro JAK kinase inhibition assay (ADP-Glo), JAK3; assay type: biochemical; settings: 30 μM ATP, peptide IGF-1Rtide, averaged
Recombinant kinase JAK3, sequence (P52333 whole entry): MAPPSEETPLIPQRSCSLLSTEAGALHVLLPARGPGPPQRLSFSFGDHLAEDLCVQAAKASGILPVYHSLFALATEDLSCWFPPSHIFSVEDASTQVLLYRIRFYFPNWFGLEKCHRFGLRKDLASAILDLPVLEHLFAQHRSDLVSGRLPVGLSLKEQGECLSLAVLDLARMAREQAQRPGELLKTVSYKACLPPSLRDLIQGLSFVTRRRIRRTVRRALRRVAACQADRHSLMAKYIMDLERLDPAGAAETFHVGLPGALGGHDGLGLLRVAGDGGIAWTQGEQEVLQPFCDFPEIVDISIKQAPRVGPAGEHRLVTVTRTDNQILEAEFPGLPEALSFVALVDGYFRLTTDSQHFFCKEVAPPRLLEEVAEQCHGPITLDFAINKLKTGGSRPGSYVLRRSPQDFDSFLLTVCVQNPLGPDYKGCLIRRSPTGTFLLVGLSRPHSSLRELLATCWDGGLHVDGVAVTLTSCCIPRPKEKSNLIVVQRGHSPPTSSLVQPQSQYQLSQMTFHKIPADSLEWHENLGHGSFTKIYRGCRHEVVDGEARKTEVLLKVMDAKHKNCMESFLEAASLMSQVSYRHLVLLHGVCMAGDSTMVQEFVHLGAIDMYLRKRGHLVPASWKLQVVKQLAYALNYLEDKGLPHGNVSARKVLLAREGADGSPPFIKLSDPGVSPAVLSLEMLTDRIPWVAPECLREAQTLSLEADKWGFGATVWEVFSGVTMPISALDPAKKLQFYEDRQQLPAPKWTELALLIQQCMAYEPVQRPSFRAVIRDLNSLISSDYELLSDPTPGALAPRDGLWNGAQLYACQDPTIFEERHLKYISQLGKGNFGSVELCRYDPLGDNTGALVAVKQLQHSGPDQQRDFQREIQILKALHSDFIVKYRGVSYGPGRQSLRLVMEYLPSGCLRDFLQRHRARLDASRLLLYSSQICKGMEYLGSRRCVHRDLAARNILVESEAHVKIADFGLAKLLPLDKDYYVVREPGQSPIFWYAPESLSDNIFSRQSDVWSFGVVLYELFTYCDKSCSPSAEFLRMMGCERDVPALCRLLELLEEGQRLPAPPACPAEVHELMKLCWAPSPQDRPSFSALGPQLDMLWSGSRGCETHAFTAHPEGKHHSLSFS
Protocol: as §1, §2, §3, §4, §5

TF-1 cells [1] = test: TF-1 cells viability in vitro in the presence of IL-3 (JAK2 activation); assay type: cell-based; settings: Homo sapiens, 5 ng/mL IL-3, 72 hours, ATPlite, read-out: JAK2 IL3 (EC50, inhibition of viability of TF-1 cells)
Protocol: (§6) Assay for TF-1 Cells Viability In Vitro
(§7) The effects of the activity of the compounds of the invention were tested in vitro using cells viability assay described below.
Tested compounds were dissolved in 100% DMSO, and obtained stock solutions were serially diluted in OptiMEM medium (Reduced Serum Medium-Thermo Fisher Scientific). […] To a well of the 96-well plate 10 μL of the prepared 10× stock solutions of the compounds. Cells on 96-well plates were incubated with the compounds for 72 hours at 37° C., 5% CO2. Subsequently, viability of the cells was measured using ATPlite kit (Perkin Elmer). For this purpose, 50 μL of lysis buffer (mammalian cell lysis solution) were added to a well of the 96-well plate and the plate was incubated for 10 minutes at 25° C. in a plate thermo-shaker with orbital stirring at 600 rpm. Then to a well of the 96-well plate 50 μL of substrate (substrate solution) were added and incubated for 15 minutes at in dark, in a plate thermo-shaker with orbital stirring at 600 rpm. After incubation time, luminescence intensity in a well was measured using Victor×Light luminometer (Perkin Elmer, Inc.).
On the basis of luminescence intensity measurements in well containing tested compounds at various concentrations and in control wells EC50 values were determined. These values were determined with Graph Pad software v. […] Each compound was tested in at least 6 repetitions (6 wells) on two 96-well plates, using at least 3 wells of each control.

TF-1 cells [2] = test: TF-1 cells viability in vitro in the presence of IL-4 (JAK1/JAK3 activation); assay type: cell-based; settings: Homo sapiens, TF-1; 20 ng/mL IL-4, 72 hours, ATPlite; read-out: JAK1,3 IL4 (EC50, inhibition of viability of TF-1 cells)
Protocol: as §6, §7
Tested compounds were dissolved in 100% DMSO, and obtained stock solutions were serially diluted in OptiMEM medium (Reduced Serum Medium-Thermo Fisher Scientific). TF-1 cells (DSMZ no.: ACC 334) in culture medium (80% RPMI 1640+20% FBS) ad in the presence of 5 ng/mL IL-3 or 20 ng/mL IL-4 were deposited on 96-well plates in the volume of 90 μl per well, 10 thousands of cells per well. To a well of the 96-well plate 10 μL of the prepared 10× stock solutions of the compounds. Cells on 96-well plates were incubated with the compounds for 72 hours at 37° C., 5% CO2. Subsequently, viability of the cells was measured using ATPlite kit (Perkin Elmer). For this purpose, 50 μL of lysis buffer (mammalian cell lysis solution) were added to a well of the 96-well plate and the plate was incubated for 10 minutes at 25° C. in a plate thermo-shaker with orbital stirring at 600 rpm. Then to a well of the 96-well plate 50 μL of substrate (substrate solution) were added and incubated for 15 minutes at in dark, in a plate thermo-shaker with orbital stirring at 600 rpm. After incubation time, luminescence intensity in a well was measured using Victor×Light luminometer (Perkin Elmer, Inc.).
as §4, with “luminescence intensity measurements” for “luminescence measurement”, “in well” for “in wells”, “control wells EC50” for “control wells, IC50”

[3] = system: STAT6 protein phosphorylation in TF-1 cells; test: STAT6 phosphorylation inhibition in vitro in TF-1 cells with IL-4; assay type: cell-based; settings: Homo sapiens, IL-4 20 ng/mL, 1 hour, Western blot densitometry
Protocol: Assay of STAT6 Phosphorylation Inhibition In Vitro
The activity of the compounds of the invention was tested using in vitro assay described below.
Tested compounds were dissolved in 100% DMSO, and obtained stock solutions were serially in OptiMEM medium (Reduced Serum Medium-Thermo Fisher Scientific). TF-1 cells (DSMZ no.: ACC 334) in culture medium (80% RPMI 1640+20% FBS) in the presence of IL-4 at 20 ng/mL were sieved on 12-well plates at 900 μl/well, 700 thousands of cells/well. To a well of the 12-well plate 100 μL of obtained 10× solution of the compounds were added. Cells on 12-well plates were incubated with tested compounds for 1 hour at 37° C., 5% CO2. Subsequently the cells were washed with PBS, lysed in RIPA buffer added with EDTA, proteases and phosphatases inhibitors, and incubated for 5 min on ice. Protein concentration was determined using Pierce BCA Protein Assay Kit (Thermo Fisher Scientific). Protein lysates were separated by electrophoresis (SDS-PAGE) on 8% polyacrylamide gels, then wet-transferred on nitrocellulose membrane and tested proteins were detected in accordance with the instructions of antibody manufacturer.
On the basis of the measurement of chemoluminescence intensity densitometric analysis was performed, results obtained for the cells treated with tested compounds at various concentrations were compared with those obtained for control cells, and IC50 values were determined.
These values were determined with Graph Pad software v. 5.03, by fitting points of the curve using non-linear regression method. Each compound was tested in at least 3 repetitions.

Recombinant kinase JAK1, sequence (P23458 whole entry): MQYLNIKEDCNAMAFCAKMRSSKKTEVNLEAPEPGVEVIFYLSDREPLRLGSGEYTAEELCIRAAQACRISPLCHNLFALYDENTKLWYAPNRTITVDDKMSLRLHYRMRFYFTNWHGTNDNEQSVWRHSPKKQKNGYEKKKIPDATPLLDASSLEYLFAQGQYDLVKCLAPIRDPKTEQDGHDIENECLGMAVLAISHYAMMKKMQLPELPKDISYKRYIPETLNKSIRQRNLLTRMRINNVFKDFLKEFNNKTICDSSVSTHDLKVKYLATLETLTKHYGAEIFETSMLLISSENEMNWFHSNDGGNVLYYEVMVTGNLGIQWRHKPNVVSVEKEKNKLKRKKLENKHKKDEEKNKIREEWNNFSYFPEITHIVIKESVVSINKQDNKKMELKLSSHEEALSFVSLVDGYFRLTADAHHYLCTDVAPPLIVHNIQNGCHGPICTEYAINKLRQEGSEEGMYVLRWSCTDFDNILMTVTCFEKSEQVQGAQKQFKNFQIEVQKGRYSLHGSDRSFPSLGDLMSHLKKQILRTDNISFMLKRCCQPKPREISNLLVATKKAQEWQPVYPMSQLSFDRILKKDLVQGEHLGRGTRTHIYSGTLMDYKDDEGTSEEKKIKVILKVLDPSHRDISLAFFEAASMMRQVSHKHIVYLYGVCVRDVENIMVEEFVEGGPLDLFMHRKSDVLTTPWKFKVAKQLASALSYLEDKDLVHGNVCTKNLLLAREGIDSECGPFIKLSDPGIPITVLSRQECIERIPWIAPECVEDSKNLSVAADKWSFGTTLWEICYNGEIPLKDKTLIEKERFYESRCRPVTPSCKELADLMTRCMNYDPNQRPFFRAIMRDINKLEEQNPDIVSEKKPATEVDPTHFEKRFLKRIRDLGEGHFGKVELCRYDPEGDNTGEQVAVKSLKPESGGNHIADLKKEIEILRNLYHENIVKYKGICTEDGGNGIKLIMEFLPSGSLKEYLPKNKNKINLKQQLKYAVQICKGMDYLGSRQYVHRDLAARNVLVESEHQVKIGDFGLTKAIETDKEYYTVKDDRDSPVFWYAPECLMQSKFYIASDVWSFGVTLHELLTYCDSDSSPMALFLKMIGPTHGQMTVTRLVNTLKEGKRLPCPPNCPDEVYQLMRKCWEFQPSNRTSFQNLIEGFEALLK

- IC50 (Recombinant kinase JAK1): 0.51 nM
- IC50 (Recombinant kinase JAK3): 0.2 nM
- IC50 [3]: 215 nM
Structure (SMILES): CC1(C)CN(c2ccc(C#N)nn2)CC[C@H]1Nc1c(C(N)=O)cnc2cc(-c3ccnc(N4CCOCC4)c3)nn12 [Example 13, (R)-7-((1-(6-Cyanopyridazin-3-yl)-3,3-dimethylpiperidin-4-yl)amino)-2-(2-morpholinopyridin-4-yl)pyrazolo[1,5-a]pyrimidine-6-carboxamide]
- IC50 (TF-1 cells [1]): 1120 nM
- IC50 (TF-1 cells [2]): 202 nM
